Experimental data published in paper PMC12583827, “Harnessing microbial-derived metabolites in the urinary tract to prevent infection induced catheter encrustation” (Nature Communications, 2025).
“Also recorded” adds a separate entry of the source. Structures can show the parent of a compound that is named as a salt. Where two headings read alike, the source gives them in different places.

Key:
P. mirabilis urease [1] = target: T1, P. mirabilis urease (Proteus mirabilis, UniProt P17086); type: cell-based; details: for effect on P. mirabilis urease activity (whole cell): potassium phosphate buffer, dose response; for Urease dampening activity: screen of candidate metabolites, * Trending but not statistically significant
T1 construct: it utilizes whole bacterial cells, rather than isolated enzyme preparations; endogenous in cells; host or cells: Proteus mirabilis HI4320, live whole cells
Procedure: (§1) Urease activity was measured as described previously in triplicate with at least three biological replicates[21]. Briefly, bacteria were cultured for ~18 h in LB broth, concentrated to an OD600 of 4, washed once in saline, and diluted (1:10 for P. mirabilis and 1:50 for P. stuartii and M. morganii) into candidate dampening metabolites in potassium phosphate buffer or human urine pH7 and supplemented with 500 mM urea and 0.01% phenol red. Bacterial suspensions were distributed into a 96-well plate, incubated at 37 °C with double-orbital shaking in a Synergy H1 plate reader (BioTek), and absorbance (OD562) was measured every 60 seconds for 180 minutes. Isogenic urease mutants (Supplementary Data 1) served as negative controls for P. mirabilis and P. stuartii and a vehicle control served as a negative control for M. morganii.

Jack Bean Urease (JBU) = target: T2, Jack Bean Urease (JBU) (Canavalia ensiformis, UniProt P07374); type: biochemical; details: 0.1 U JBU, 500 mM urea
T2 construct: purchased Sigma-Aldrich
Procedure: To measure Jack Bean urease activity, the previously described assay was modified such that 0.1 U (1U liberates 1 µmol of ammonia from urea per minute) of JBU (Sigma-Aldrich urease from Canavalia ensiformis) were distributed into a 96-well plate in place of the bacterial suspensions. Acetohydroxamic acid (AHA), was used as a positive control and a vehicle control was used as a negative control. Percent of maximum urease activity was calculated using Area Under the Curve (AUC) relative to untreated bacteria of interest or untreated JBU. Urease activity measurement in MRSA was adapted from a recently published semi quantitative assay (See Supplementary materials for details)[48].
414 Supplementary Figure 13. Microbial metabolites dampen activity of purified Jack Bean
415 Urease (JBU). 0.1 U of JBU (1U liberates 1 µmol of ammonia from urea per minute) was
416 incubated at 37 °C with shaking in urease-dampening metabolites, 500mM urea, and phenol red.
417 A urea analogue, AHA, served as the positive control for inhibition of JBU. Absorbance
418 (OD562) was measured every 60 seconds for 90 minutes, and activity is expressed as percent of
419 maximum activity (% Max Activity) relative to untreated JBU. Graphs show mean±SD for 3
420 independent experiments with 3 technical replicates each. Data were analyzed by two tailed one
421 sample t-test to a hypothetical value of 100% activity. ***P<0.001, **P<0.002, *P<0.033.
(1 picture or pasted object on this page, not shown here)

[2] = target: T3, urease of P. mirabilis HI4320 cell free extracts (Proteus mirabilis, UniProt P17086); type: biochemical
T3 construct: 20ul of cell-free extract were distributed into a 96-well plate in place of the whole cell bacterial suspensions; endogenous in cells; host or cells: Proteus mirabilis HI4320, urea-induced; freeze-thaw and sonication lysate, clarified supernatant
Procedure: To measure urease activity of the cell free extracts of P. mirabilis, P. mirabilis was cultured for ~18 h in LB broth and then sub cultured until it reached mid-log growth phase (OD600 0.2-0.5). Cultures were spun down to pellet at 10,000 rcf for 10 minutes and resuspended in saline to a final OD600 of 1.0. Cultures were then diluted 1:10 in potassium phosphate buffer pH7 supplemented with 500 mM urea and incubated at 37 °C with shaking for 1 h to induce its urease enzyme production. The isogenic urease mutant Pm ureF::kan (Supplementary Data 1) served as negative control. Cultures then were spun down to pellet at 10,000 rcf for 10 minutes and resuspended in 2 mL saline. Cultures were subjected to four cycles of freezing in liquid nitrogen and thawing in a 37 °C water bath. Cultures were then probe sonicated (on ice) at 25% amplitude for 10 sec. Sonicated cultures were centrifuged at 18,900 Xg for 5 min and supernatants were transferred to a clean tube and stored on ice. To measure urease activity of cell free extracts, the previously described assay was modified such that 20ul of cell-free extract were distributed into a 96-well plate in place of the whole cell bacterial suspensions. Acetohydroxamic acid (AHA), was used as a positive control. Percent of maximum urease activity was calculated using Area Under the Curve (AUC) relative to untreated cell free extracts of P. mirabilis.

[3] = target: T4, urease of P. mirabilis cell free extracts (Proteus mirabilis, UniProt P17086); type: biochemical; details: for type of urease inhibition: Michaelis-Menten parameters, Lineweaver-Burke plot
T4 construct: 20ul of cell-free extract were distributed into a 96-well plate in place of the whole cell bacterial suspensions; endogenous in cells; host or cells: Proteus mirabilis HI4320, urea-induced; freeze-thaw and sonication lysate, clarified supernatant
Procedure: For the kinetic analysis of the urease reaction in the presence of urease dampening metabolites, urease activity assays were repeated with the P. mirabilis cell free extracts. Six different inhibitor concentrations that gave linear rates of reaction over a period of 120 min were tested for their effects on urease activity in the presence of urea concentrations ranging from 0 to 500 mM. Simple linear regression was performed on the absorbance (OD562) over 120 minutes for each condition and plotted as Initial velocity (slope) vs urea concentration. These initial hyperbolic plots were converted to double-reciprocal Lineweaver-Burke plots, and the pattern of inhibition inferred from the point of intersection of the lines. Finally, the Ki for a particular compound was determined by plotting the Km/Vmax ratio (the slope of the Lineweaver-Burke plots) of each line as a function of the inhibitor concentration as described by ref. [49]. The X-intercept corresponded to –Ki.

[4] = Buffering capacity assay (NaOH titration, phenol red); type: physicochemical; details: high concentrations of metabolite in potassium phosphate buffer with phenol red
Procedure: Known concentrations of sodium hydroxide were added to each well of a 96 well plate in combination with candidate dampening metabolite of interest buffered 1:10 in potassium phosphate buffer pH7. 0.01% phenol red was added to each well, and absorbance (OD562) was measured in a Synergy H1 plate reader (BioTek).

P. mirabilis urease [5] = target: T1, P. mirabilis urease; type: cell-based; details: for Compound 1 %I alone: kphos
Procedure: To assess the synergistic effects of dampening metabolites when used in combination with each other, P. mirabilis urease activity was measured as described above. Between 4-6 different concentrations for each dampening metabolite were tested both alone and in combination (See Fig. 6a for example). […] To account for variability between experiments, all conditions tested were performed on a single 96-well plate with three technical replicates for each condition. To compare between biologic replicates, percent inhibition relative to untreated P. mirabilis was calculated for each condition using the average area under the curve over 120-180 minutes (so that the positive control activity curve saturated without any increase in the negative control curve).
Statistical analysis was conducted using a one sample T test of the combination index compared to a hypothetical value of 1 (additive effect). […] Therefore, combination indexes were calculated using a desired effect size less than 40% were indicated with an * in Fig. 6b and in Supplementary Data 5.

UTI MRSA urease = UTI MRSA urease activity assay; type: cell-based, Staphylococcus aureus; details: whole cell, urease broth
Procedure: 190 Omega and visualization was carried out using ESPript 3.0 (69), enabling comparison across
191 different clinical isolates. Urease genes, including the full operon from ureA to ureR, were
192 identified and extracted from the prokka annotated genomes. The extracted protein sequences
193 were subjected to sequence alignment using Clustal Omega and visualization was carried out
194 using ESPript 3.0 [8], enabling comparison across different clinical isolates.
195 UTI MRSA urease activity assay. The UTI MRSA urease assay was adapted from a recently-
196 published semi quantitative assay to measure urease activity in bacterial species with low overall
197 activity under standard conditions (50). Dampening metabolites were directly dissolved in urease
198 broth (1 g tryptone (RPI; CAS No. 91079-40-2), 1 g D(+)-glucose (RPI; CAS No. 50-99-7), 2 g
199 potassium phosphate monobasic anhydrous (VWR; Lot: 20C1356567), 5 g sodium chloride
201 of MilliQ water, pH 5.5, sterilized via autoclaving). UTI MRSA strains from overnight cultures
202 were harvested by centrifugation for 5 minutes at 10,000 g, washed with 1 volume of 1X
203 Phosphate Buffered Saline (PBS), and resuspended in urease broth. Bacterial cultures were […]
205 measured at 415 nm, 560 nm, and 600 nm every 20 mins for 24 hours, shaking at 37°C using a
206 BioTek Synergy|H1 microtiter plate reader. Urease activity was calculated by dividing the OD […]

P. stuartii urease = assay: Urease activity assay, whole cell P. stuartii BE2467; type: cell-based, Providencia stuartii
Procedure: as §1

M. morganii urease = assay: Urease activity assay, whole cell M. morganii TA43; type: cell-based, Morganella morganii
Procedure: as §1

[6] = system: P. mirabilis urease operon (ureABC, ureEDF); assay: Real-time quantitative PCR of urease operon; type: cell-based, Proteus mirabilis; details: 15-minute incubation, 500 mM urea
Procedure: P. mirabilis was cultured for ~18 h in LB broth and then sub cultured until it reached mid-log growth phase (OD600 0.2-0.5). Cultures were spun down to pellet at 10,000 rcf for 10 minutes and resuspended in saline to a final OD600 of 1.0. Cultures were then diluted 1:10 into dampening metabolites buffered 1:10 in potassium phosphate buffer pH7 and supplemented with 500 mM urea. P. mirabilis in potassium phosphate buffer without urea served as a negative control. Cultures were incubated in potassium phosphate buffer with and without dampening metabolites at 37 °C with shaking for 15 minutes. RNA isolation, cDNA synthesis and RT qPCR were performed as described previously. […] A RNA integrity analysis using agarose gel electrophoresis on extracted RNA was performed for all samples to confirm no change in transcript stability (Supplementary Fig 16A). The data were analyzed according to the Relative Quantification (RQ) method by Pfaffl et al. 2001[54] (See Supplementary Information).
168 Real-time quantitative PCR analysis. The data were analyzed according to the Relative
169 Quantification (RQ) method by Pfaffl et al 2001 (56) in which P. mirabilis potassium phosphate
170 buffer without urea was considered as the ‘Control’ and P. mirabilis in potassium phosphate
171 buffer supplemented with 500mM urea with and without candidate dampening compounds were
172 the ‘Sample.’ The full equation is below.
(E )ΔCPtarget (control−sample)
174 Relative Quantification Ratio = target Equation 2
(Ereference)ΔCPreference (control−sample)
176 In this equation, E refers to the primer efficiency of the target gene (Etarget, urease operon
177 subunits) or the reference gene (Ereference, rpoA), and CP refers to the Cycle Point, or the cycle
178 number at which the signal exceeds the threshold. […]
183 for whole genome sequencing on the Illumina NextSeq2000 platform. Read trimming, and run
184 analytics were performed using Trimmomatic v0.39.0 (62). The processed reads were assembled
185 using spades v3.15.5 (63) wrapped in Unicycler v0.5.0 (64, 65). Read mapping was done using […]

[7] = system: P. mirabilis catheter biofilms; assay: Antibiotic testing in the in vitro “bladder” model; type: cell-based, Proteus mirabilis; details: 1ug/mL ceftriaxone added at 24 h
Procedure: The glass “bladder” system assembly, inoculation and sample collection were performed as described above. At 24 h post inoculation glass “bladders” were supplied with media containing the same metabolite (or AUM only control) with or without 1 µg/mL ceftriaxone sodium salt hydrate (Cayman Chemical Company, Michigan, USA). Samples were then collected from the catheter port at 27, 30, 33, 36 and 48 h to monitor pH and bacterial CFUs. After 48 h, the catheters were carefully removed, sectioned and assessed for bacterial viability as detailed in Supplementary Methods.

[8] = highest concentration tested 20mM

T1 sequence (P17086 whole entry): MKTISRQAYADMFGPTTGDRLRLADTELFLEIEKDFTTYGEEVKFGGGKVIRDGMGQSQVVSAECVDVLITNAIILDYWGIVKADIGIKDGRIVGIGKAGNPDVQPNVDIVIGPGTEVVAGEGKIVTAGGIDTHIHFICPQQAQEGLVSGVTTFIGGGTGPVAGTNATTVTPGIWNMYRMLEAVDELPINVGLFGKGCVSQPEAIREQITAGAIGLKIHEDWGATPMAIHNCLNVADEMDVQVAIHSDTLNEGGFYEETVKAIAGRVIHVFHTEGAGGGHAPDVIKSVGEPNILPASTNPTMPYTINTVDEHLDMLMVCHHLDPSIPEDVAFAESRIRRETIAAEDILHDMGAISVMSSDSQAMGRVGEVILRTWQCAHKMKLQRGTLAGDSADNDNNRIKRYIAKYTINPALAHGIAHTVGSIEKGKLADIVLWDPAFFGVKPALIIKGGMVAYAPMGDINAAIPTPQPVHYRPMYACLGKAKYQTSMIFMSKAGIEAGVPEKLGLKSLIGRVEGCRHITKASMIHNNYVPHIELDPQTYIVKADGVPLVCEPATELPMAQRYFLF
T1 sequence (P17088 whole entry, further chain): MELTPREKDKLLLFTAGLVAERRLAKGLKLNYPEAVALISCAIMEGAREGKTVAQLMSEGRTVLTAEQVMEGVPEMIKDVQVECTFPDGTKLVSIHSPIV
T1 sequence (P17087 whole entry, further chain): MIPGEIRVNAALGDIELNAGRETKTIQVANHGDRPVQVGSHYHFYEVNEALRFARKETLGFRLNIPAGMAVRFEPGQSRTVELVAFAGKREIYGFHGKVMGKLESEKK
T4 sequence (P17086 whole entry): as the sequence (P17086 whole entry) above
T4 sequence (P17088 whole entry, further chain): as the sequence (P17088 whole entry, further chain) above
T4 sequence (P17087 whole entry, further chain): as the sequence (P17087 whole entry, further chain) above
T2 sequence (P07374 whole entry, looked up): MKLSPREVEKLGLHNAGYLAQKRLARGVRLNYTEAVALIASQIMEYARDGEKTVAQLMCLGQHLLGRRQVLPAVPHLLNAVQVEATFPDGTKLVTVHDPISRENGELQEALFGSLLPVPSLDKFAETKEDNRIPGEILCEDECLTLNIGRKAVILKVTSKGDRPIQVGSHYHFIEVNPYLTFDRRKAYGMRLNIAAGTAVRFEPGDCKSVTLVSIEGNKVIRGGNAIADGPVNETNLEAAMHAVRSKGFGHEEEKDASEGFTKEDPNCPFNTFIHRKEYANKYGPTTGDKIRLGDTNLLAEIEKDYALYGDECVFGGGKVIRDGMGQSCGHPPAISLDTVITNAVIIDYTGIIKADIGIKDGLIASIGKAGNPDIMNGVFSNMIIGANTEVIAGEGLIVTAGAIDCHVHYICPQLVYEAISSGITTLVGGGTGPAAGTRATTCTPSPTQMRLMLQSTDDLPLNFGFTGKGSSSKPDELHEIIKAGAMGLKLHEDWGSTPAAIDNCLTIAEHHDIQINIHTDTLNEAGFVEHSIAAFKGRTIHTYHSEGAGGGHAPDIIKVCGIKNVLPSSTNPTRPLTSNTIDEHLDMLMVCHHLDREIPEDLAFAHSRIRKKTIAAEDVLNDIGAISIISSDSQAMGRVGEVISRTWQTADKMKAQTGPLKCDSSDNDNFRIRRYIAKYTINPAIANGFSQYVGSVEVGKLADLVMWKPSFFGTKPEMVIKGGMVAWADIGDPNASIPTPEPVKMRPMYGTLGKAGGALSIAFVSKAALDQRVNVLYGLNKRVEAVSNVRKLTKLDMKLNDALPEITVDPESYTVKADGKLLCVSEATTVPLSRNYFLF
T3 sequence (P17088 whole entry): as the sequence (P17088 whole entry, further chain) above
T3 sequence (P17086 whole entry): as the sequence (P17086 whole entry) above
T3 sequence (P17087 whole entry, further chain): as the sequence (P17087 whole entry, further chain) above

| Compound | Dampens urease activity (P. mirabilis urease [1]; biosynthetic pathway/functional group screen, highest concentration tested 20mM) | effect on P. mirabilis urease activity (whole cell) (P. mirabilis urease [1]) | JBU activity (Jack Bean Urease (JBU)) | urease activity of cell free P. mirabilis extracts [2] | change of estimated Km on addition of metabolite [3] | change of estimated Vmax on addition of metabolite [3] | type of urease inhibition [3] | buffering capacity: absorbance (OD562) across NaOH concentrations [4] | Urease dampening activity (P. mirabilis urease [1]; [8]) | Compound 1 %I alone (P. mirabilis urease [5]; Compound 1 [] alone 25, assay date 2024 08 07) [%] | Compound 1 %I alone (P. mirabilis urease [5]; Compound 1 [] alone 37.5, assay date 2024 08 09) [%] | Compound 1 %I alone (P. mirabilis urease [5]; Compound 1 [] alone 50, assay date 2024 08 07) [%] | urease activity in MRSA (UTI MRSA urease) | urease activity in P. stuartii (P. stuartii urease) | concentrations required to achieve a significant combination index (P. mirabilis urease [5]) [mM] | urease activity in M. morganii (M. morganii urease) | ureE and ureF transcript levels [6] | AUM pH compared to the control “bladder” [7] | reduction in CFU/mL by the end of the experiment ([7]; effluent, 48 h) [log] |
| --- | --- | --- | --- | --- | --- | --- | --- | --- | --- | --- | --- | --- | --- | --- | --- | --- | --- | --- | --- |
| c1c[nH]cn1 [imidazole, Imidazole] | Yes | additional hits | inhibited | at least partially inhibiting | increase | decrease | mixed inhibitors | consistent reduction in absorbance compared to the control |  |  |  |  |  |  |  |  |  |  |  |
| O=C(O)[C@@H](O)Cc1cnc[nH]1 [L-imidazole lactate, L-imidazolelactic acid] |  |  | inhibited | at least partially inhibiting | increase | decrease | mixed inhibitors | consistent reduction in absorbance compared to the control | Yes | 36.6 | 56.9 | 58.1 |  |  |  |  |  |  |  |
| O=C(O)C(=O)Cc1ccccc1 [phenylpyruvate, Sodium phenylpyruvate monohydrate] |  | reproducibly decreased; also recorded: only modest activity | did not inhibit; also recorded: no activity |  |  |  |  |  | Yes |  |  |  | most potent urease inhibition | no activity | > 50 | no activity | modestly increased |  |  |
| CO/N=C(\C(=O)N[C@@H]1C(=O)N2C(C(=O)O)=C(CSc3nc(=O)c(=O)[nH]n3C)CS[C@H]12)c1csc(N)n1 [ceftriaxone, ceftriaxone sodium salt hydrate] |  |  |  |  |  |  |  |  |  |  |  |  |  |  |  |  |  | no impact on pH | 3 |
